Experimental data from patent publication US20240075093A1, “COMPOSITIONS AND METHODS OF TREATING A PI3K MEDIATED DISEASE” (VIRGINIA TECH INTELLECTUAL PROPERTIES, INC., priority 2020, published 2024).

Test system: SF295 cells
Assay: MTS cell viability assay
Type: cell-based
Details: 20 uM TGX-221 and 50 uM TMZ, 4 days
Protocol: (FIG. 12A) p110βC2in. CPP: cell-penetrating peptide. Simulated p110βC2in (rainbow as represented in greyscale) is shown. (FIG. 12B) FITC-p110βC2in in LN229/GSCs was imaged using a fluorescence microscope. Upper: FITC; lower: bright view. (FIG. 12C) PI3K/AKT activity affected by 100 μM p110βC2in (+) or C2Scramble-1 (−). (FIG. 12D) MTS Cell viability assay. Cells were treated with 50 μM peptides for 4 days. Student t test was used to determine P values.
Cell viability was measured by the MTS assay. P values were determined using the student t test or one-way ANOVA. Error bars represent three independent experiments.
This scheme has been repeated in experiments presented hereafter. Cell viability was determined using the MTS viability assay. Percentages of cell viability were obtained by normalizing the MTS readings of treatment groups to that of DMSO group. (FIG. 34B) Scores of Excess Over Bliss (EOB) calculated using the Bliss Independence model. The drug combination is synergistic if EOB is more than 0%, additive if EOB equals to 0%, or antagonistic if EOB is less than 0%. […] (FIG. 34D) EOB scores of drug combinations in LN229 and VTC-001 cells. (FIG. 34E) Caspase 3/7 activity in VTC-103 and VTC-001 cells. The activity of cleaved caspase 3/7 (active) was determined using a luminescence assay. Shown are luminescence readings. (FIG. 34F) EOB scores of drug combinations in VTC-103 and VTC-001 cells. […] SF295 cells were subcutaneously injected into immuno-deficient mice. […] Tumor volumes are shown. […] Cell viability was determined using the MTS viability assay. Percentages of cell viability were obtained by normalizing the MTS readings of treatment groups to that of shNS group. […]
Cell viability was determined by the MTS cell viability assay (Promega) as described previously 21,24-27. […] At each hour time point, the absorbance at 490 nm was measured using a FilterMax F3 microplate reader (Molecular Devices, LLC) according to the manufacturer's instructions. Percent cell viability was obtained by dividing the absorbance of treatment groups to those of untreated and respective vehicle control groups.

## Cc1cc(C(C)Nc2ccccc2)c2nc(N3CCOCC3)cc(=O)n2c1 (stereo not shown) [TGX-221]
  TMZ sensitivity: increased TMZ sensitivity
